This passage reports Kd results from patent publication US20250064941A1, “SIGLEC LIGANDS, CONJUGATES, AND METHODS OF USE THEREOF” (Osprey Biopharmaceuticals, Inc., priority 2023, published 2025).

In assay [1] the target is T1, mouse Siglec-2-Fc-Avi (CD22) (Mus musculus, UniProt P35329).
T1 construct: made in house
T1 sequence (P35329 22-708 limits assumed): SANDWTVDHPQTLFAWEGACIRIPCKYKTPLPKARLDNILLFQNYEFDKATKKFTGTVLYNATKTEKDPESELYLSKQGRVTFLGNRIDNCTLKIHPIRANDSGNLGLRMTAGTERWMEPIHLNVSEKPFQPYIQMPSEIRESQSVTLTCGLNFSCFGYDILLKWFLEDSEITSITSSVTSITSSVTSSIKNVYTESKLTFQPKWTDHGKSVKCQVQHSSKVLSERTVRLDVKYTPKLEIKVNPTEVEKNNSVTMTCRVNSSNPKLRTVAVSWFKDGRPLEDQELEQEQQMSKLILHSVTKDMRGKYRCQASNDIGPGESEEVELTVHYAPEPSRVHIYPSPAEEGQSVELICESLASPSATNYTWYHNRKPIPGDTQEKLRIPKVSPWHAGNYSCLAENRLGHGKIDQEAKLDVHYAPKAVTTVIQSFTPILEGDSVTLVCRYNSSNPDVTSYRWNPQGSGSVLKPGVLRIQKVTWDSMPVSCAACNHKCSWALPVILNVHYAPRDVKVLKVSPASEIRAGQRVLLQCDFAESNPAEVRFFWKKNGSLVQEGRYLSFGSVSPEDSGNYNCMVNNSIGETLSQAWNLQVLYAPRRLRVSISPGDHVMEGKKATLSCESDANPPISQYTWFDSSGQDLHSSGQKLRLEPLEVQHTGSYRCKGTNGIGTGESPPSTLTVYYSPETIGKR
Put plainly: SPR binding affinity to mouse CD22. Conditions: steady-state analysis. The procedure: (§1) Prior to immobilization, CD22 proteins were treated with SialoExo (Genovis, Cat #G1-SM1-020) for 4 hours at 37° C. to remove native sialic acid residues.
(§2) Capture of biotinylated CD22 constructs was performed using a Cytiva SA chip (BR100398) on a Biacore 8K instrument.
(§3) Binding experiments of Siglec-ligand conjugated proteins or Siglec ligand compounds were performed on the surfaces prepared above in 10 mM HEPES, 150 mM NaCl, 0.05% Tween-20, pH 7.5, 1% DMSO as the running buffer. […] The compounds were then allowed to dissociate from the surface for 120 seconds. […] Solvent correction was performed using 0.5, 1, 1.5, and 2% DMSO spike into running buffer without DMSO. […] Data was analyzed using steady-state analysis in Biacore Insight Evaluation Software, version 3.0 for Siglec ligand compounds.
A general note: SPR reads the build-up and loss of mass on a sensor chip optically.

In assay [2] the target is T2, human Siglec-2/CD22 protein (Homo sapiens, UniProt P20273).
T2 construct: purchased Acro Biosystems SI2-H82E3
T2 sequence (P20273 20-847): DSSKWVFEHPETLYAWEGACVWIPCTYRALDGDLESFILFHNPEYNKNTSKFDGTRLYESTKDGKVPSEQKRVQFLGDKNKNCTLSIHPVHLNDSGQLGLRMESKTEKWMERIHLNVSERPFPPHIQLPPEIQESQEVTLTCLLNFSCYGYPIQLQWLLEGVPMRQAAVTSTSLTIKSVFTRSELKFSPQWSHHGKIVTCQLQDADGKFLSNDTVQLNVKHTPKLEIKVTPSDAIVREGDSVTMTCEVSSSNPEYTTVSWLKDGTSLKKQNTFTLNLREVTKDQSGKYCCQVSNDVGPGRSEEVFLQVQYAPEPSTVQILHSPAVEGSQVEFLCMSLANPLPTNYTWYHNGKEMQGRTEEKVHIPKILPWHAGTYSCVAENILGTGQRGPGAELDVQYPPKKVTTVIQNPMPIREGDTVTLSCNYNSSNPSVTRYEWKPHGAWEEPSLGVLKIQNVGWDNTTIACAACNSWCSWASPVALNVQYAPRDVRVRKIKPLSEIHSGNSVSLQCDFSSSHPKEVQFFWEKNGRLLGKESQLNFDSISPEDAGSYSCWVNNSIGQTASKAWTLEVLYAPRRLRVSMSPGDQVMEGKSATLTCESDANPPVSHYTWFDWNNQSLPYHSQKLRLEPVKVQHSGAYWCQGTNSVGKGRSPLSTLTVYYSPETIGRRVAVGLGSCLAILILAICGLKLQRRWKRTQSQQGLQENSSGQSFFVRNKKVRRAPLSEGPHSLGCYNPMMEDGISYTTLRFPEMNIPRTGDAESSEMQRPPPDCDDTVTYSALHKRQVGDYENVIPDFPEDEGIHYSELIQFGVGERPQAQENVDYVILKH
Briefly: SPR binding affinity to human CD22. Conditions: steady-state analysis. The procedure:
as §1, §2, §3

SMILES strings stand for the structures. Where only a bound is given, the exact number is not on record here.

On to `C#CCOCCOCCNc1c(NCCCCCCO[C@]2(C(=O)O)C[C@H](O)[C@@H](NC(=O)CO)[C@H]([C@H](O)[C@H](O)CNC(=O)c3ccccc3Cl)O2)c(=O)c1=O` [Compound 229, (2R,4S,5R,6R)-6-((1R,2R)-3-(2-chlorobenzamido)-1,2-dihydroxypropyl)-2-((6-((3,4-dioxo-2-((2-(2-(prop-2-yn-1-yloxy)ethoxy)ethyl)amino)cyclobut-1-en-1-yl)amino)hexyl)oxy)-4-hydroxy-5-(2-hydroxyacetamido)tetrahydro-2H-pyran-2-carboxylic acid], for which the Kd in assay [1] and in assay [2] was 1000 to 10000 nM in each case.

For `C#CCOCCOCCNc1c(NCCCCCCO[C@]2(C(=O)O)C[C@H](O)[C@@H](NC(=O)CO)[C@H]([C@H](O)[C@H](O)CNC(=O)c3ccccc3)O2)c(=O)c1=O` [Compound 230, (2R,4S,5R,6R)-6-((1R,2R)-3-benzamido-1,2-dihydroxypropyl)-2-((6-((3,4-dioxo-2-((2-(2-(prop-2-yn-1-yloxy)ethoxy)ethyl)amino)cyclobut-1-en-1-yl)amino)hexyl)oxy)-4-hydroxy-5-(2-hydroxyacetamido)tetrahydro-2H-pyran-2-carboxylic acid], the dissociation constant Kd in assay [1] and in assay [2] was 1000 to 10000 nM throughout.

Turning to `CC(=O)NCCOCCOCCOCCOCCNc1c(NCCCCCCO[C@]2(C(=O)O)C[C@H](O)[C@@H](NC(C)=O)[C@H]([C@H](O)[C@H](O)CNC(=O)Cc3ccc(Cl)cc3)O2)c(=O)c1=O` [Compound 248, (2R,4S,5R,6R)-5-acetamido-6-((1R,2R)-3-(2-(4-chlorophenyl)acetamido)-1,2-dihydroxypropyl)-2-((6-((3,4-dioxo-2-((2-oxo-6,9,12,15-tetraoxa-3-azaheptadecan-17-yl)amino)cyclobut-1-en-1-yl)amino)hexyl)oxy)-4-hydroxytetrahydro-2H-pyran-2-carboxylic acid], the Kd in assay [1] was 1000 to 10000 nM; in assay [2], less than 1000 nM.

On to `CC(=O)NCCOCCOCCOCCOCCC(=O)NCCCCCO[C@]1(C(=O)O)C[C@H](O)[C@@H](NC(C)=O)[C@H]([C@H](O)[C@H](O)CNC(=O)Cc2ccc(Cl)cc2)O1` [Compound 249, (2R,4S,5R,6R)-5-acetamido-6-((1R,2R)-3-(2-(4-chlorophenyl)acetamido)-1,2-dihydroxypropyl)-2-((2,18-dioxo-6,9,12,15-tetraoxa-3,19-diazatetracosan-24-yl)oxy)-4-hydroxytetrahydro-2H-pyran-2-carboxylic acid], for which the Kd in assay [1] and in assay [2] was 1000 to 10000 nM throughout.

As for `CC(=O)NCCOCCOCCOCCOCc1cn(CCCCCCO[C@]2(C(=O)O)C[C@H](O)[C@@H](NC(C)=O)[C@H]([C@H](O)[C@H](O)CNC(=O)Cc3ccc(Cl)cc3)O2)nn1` [Compound 250, (2R,4S,5R,6R)-5-acetamido-6-((1R,2R)-3-(2-(4-chlorophenyl)acetamido)-1,2-dihydroxypropyl)-4-hydroxy-2-((6-(4-(15-oxo-2,5,8,11-tetraoxa-14-azahexadecyl)-1H-1,2,3-triazol-1-yl)hexyl)oxy) tetrahydro-2H-pyran-2-carboxylic acid], the Kd is 1000 to 10000 nM in assay [1] and less than 1000 nM in assay [2].

Consider `C#CCOCCCCCCS[C@]1(C(=O)O)C[C@H](O)[C@@H](NC(=O)CO)[C@H]([C@H](O)[C@H](O)CNC(=O)c2ccc(Cl)cc2)O1` [Compound 251, (2S,4S,5R,6R)-6-((1R,2R)-3-(4-chlorobenzamido)-1,2-dihydroxypropyl)-4-hydroxy-5-(2-hydroxyacetamido)-2-((6-(prop-2-yn-1-yloxy)hexyl)thio) tetrahydro-2H-pyran-2-carboxylic acid], for which the Kd in assay [1] and in assay [2] was 1000 to 10000 nM each time.

Take `C#CCOCCOCCNc1c(NCCCCCCO[C@]2(C(=O)O)C[C@H](O)[C@@H](NC(=O)CO)[C@H]([C@H](O)[C@H](O)CNC(=O)c3ccc(Cl)cc3)O2)c(=O)c1=O` [Compound 254, (2R,4S,5R,6R)-6-((1R,2R)-3-(4-chlorobenzamido)-1,2-dihydroxypropyl)-2-((6-((3,4-dioxo-2-((2-(2-(prop-2-yn-1-yloxy)ethoxy)ethyl)amino)cyclobut-1-en-1-yl)amino)hexyl)oxy)-4-hydroxy-5-(2-hydroxyacetamido) tetrahydro-2H-pyran-2-carboxylic acid]: the values for the Kd in assay [1] and in assay [2] were 1000 to 10000 nM and less than 1000 nM, respectively.

Consider `C#CCOCCCCCCS[C@]1(C(=O)O)C[C@H](O)[C@@H](NC(=O)CO)[C@H]([C@H](O)[C@H](O)CNC(=O)c2cccc(Oc3ccccc3)c2)O1` [Compound 255, (2S,4S,5R,6R)-6-((1R,2R)-1,2-dihydroxy-3-(3-phenoxybenzamido)propyl)-4-hydroxy-5-(2-hydroxyacetamido)-2-((6-(prop-2-yn-1-yloxy)hexyl)thio) tetrahydro-2H-pyran-2-carboxylic acid], for which the Kd was 1000 to 10000 nM in assay [1] and less than 1000 nM in assay [2].

For the molecule `CC(=O)NCCOCCOCCOCCOCCn1cc(COCCCCCCO[C@]2(C(=O)O)C[C@H](O)[C@@H](NC(=O)CO)[C@H]([C@H](O)[C@H](O)CNC(=O)Cc3ccc(C(F)F)cc3)O2)nn1` [Compound 261, (2R,4S,5R,6R)-6-((1R,2R)-3-(2-(4-(difluoromethyl)phenyl)acetamido)-1,2-dihydroxypropyl)-4-hydroxy-5-(2-hydroxyacetamido)-2-((6-((1-(2-oxo-6,9,12,15-tetraoxa-3-azaheptadecan-17-yl)-1H-1,2,3-triazol-4-yl)methoxy)hexyl)oxy)tetrahydro-2H-pyran-2-carboxylic acid], the dissociation constant Kd in assay [1] and in assay [2] was less than 1000 nM in each case.

For the molecule `CC(=O)NCCOCCOCCOCCOCCn1cc(COCCCCCCO[C@]2(C(=O)O)C[C@H](O)[C@@H](NC(=O)CO)[C@H]([C@H](O)[C@H](O)CNC(=O)Cc3ccc(Cl)cc3)O2)nn1` [Compound 262, (2R,4S,5R,6R)-6-((1R,2R)-3-(2-(4-chlorophenyl)acetamido)-1,2-dihydroxypropyl)-4-hydroxy-5-(2-hydroxyacetamido)-2-((6-((1-(2-oxo-6,9,12,15-tetraoxa-3-azaheptadecan-17-yl)-1H-1,2,3-triazol-4-yl)methoxy)hexyl)oxy)tetrahydro-2H-pyran-2-carboxylic acid], the results for the equilibrium dissociation constant (Kd) in assay [1] and in assay [2] were 1000 to 10000 nM and less than 1000 nM, respectively.

On to `CC(=O)NCCOCCOCCOCCOCCn1cc(CCCCCCO[C@]2(C(=O)O)C[C@H](O)[C@@H](NC(=O)CO)[C@H]([C@H](O)[C@H](O)CNC(=O)Cc3ccc(Cl)cc3)O2)nn1` [Compound 263, (2R,4S,5R,6R)-6-((1R,2R)-3-(2-(4-chlorophenyl)acetamido)-1,2-dihydroxypropyl)-4-hydroxy-5-(2-hydroxyacetamido)-2-((6-(1-(2-oxo-6,9,12,15-tetraoxa-3-azaheptadecan-17-yl)-1H-1,2,3-triazol-4-yl)hexyl)oxy)tetrahydro-2H-pyran-2-carboxylic acid], for which the figures for the dissociation constant (Kd) in assay [1] and in assay [2] were 1000 to 10000 nM and less than 1000 nM, respectively.

On to `CC(=O)NCCOCCOCCOCCOCCOC(=O)NCCCCCCO[C@]1(C(=O)O)C[C@H](O)[C@@H](NC(C)=O)[C@H]([C@H](O)[C@H](O)CNC(=O)c2cccc(Cl)c2)O1` [Compound 268, (2R,4S,5R,6R)-5-acetamido-6-((1R,2R)-3-(3-chlorobenzamido)-1,2-dihydroxypropyl)-2-((2,19-dioxo-6,9,12,15,18-pentaoxa-3,20-diazahexacosan-26-yl)oxy)-4-hydroxytetrahydro-2H-pyran-2-carboxylic acid], for which the dissociation constant Kd in assay [1] was more than 10000 nM; in assay [2], 1000 to 10000 nM.

The term Kd denotes the free concentration of one partner at which half of the binding sites on the other are occupied at equilibrium, for simple one-to-one binding.
